From patent publication EP1704862A1, “2,5-bis(tetrahydroxybutyl)pyrazines for the treatment of osteoarthritis and rheumatoid arthritis” (ROTTAPHARM S.P.A., priority 2005, dated 2006)
Like-named read-outs stand apart in the source and are kept apart here.

Columns and labels:
PGE2 Synthesis [1] = settings: Human chondrocytes, IL-1β induced; Osteoarthritis and Cartilage, 2000, 8(6), 434; read-out: PGE2 Synthesis inhibitory activity IC50; cited from earlier work
NO Synthesis [2] = settings: Bovine articular cartilage, IL-1β induced; Osteoarthritis and Cartilage, 2000, 8(6), 434; read-out: NO Synthesis inhibitory activity IC50; cited from earlier work
[3] = Metabolic stability in human liver S9 fraction; assay type: in vitro ADME; settings: human liver S9, 1µM, average of two experiments
Source text: (§1) Metabolic stability for the compounds of the invention has been assessed using rat, dog and human liver S9 fractions, using the same methods as described in the literature (R Singh et al., Rapid Commun. Mass Spectrom., 10, 9, 1019-26, 1996).
(§2) Permeability and metabolic stability data are the average of two experiments.

[4] = Apparent permeability (Papp) across TC-7 cell monolayer; assay type: in vitro ADME; settings: human, Caco-2; TC-7 cells, pH 6.5/7.4, average of two experiments
Source text: The preferred route of administration for the compounds of the invention is oral, therefore the compound should have suitable permeability across the human intestinal epithelia to allow absorption into the circulation. However, also when the parenteral route is chosen for administration, an effective compound must be sufficiently permeable across biological membranes to reach the site/s of action. The permeability of compounds of formula (I) has been assessed in vitro using the apparent permeability coefficients approach (Papp) (Pharmacokinetics Optimization in Drug Research: biological, physicochemical and computational strategies; Bernard Testa, Han van de Waterbeemd, 2001, Wiley). The TC-7 clone was used instead of the Caco-2 cell line for this assessment, since it was reported that the two human intestinal epithelial cell lines are equivalent as far as drug transport characteristics are concerned and thus can be used interchangeably to predict absorption in humans after oral administration (MC Gres et al., Pharm. Res., 15, 5, 726-33, 1998); the experimental work was carried out as described in the mentioned literature.
as §2

[5] = test system: IL-1β induced GAG release; assay: IL-1β induced GAG release in chondrocyte culture (DMB assay); assay type: cell-based, New Zealand white rabbits; settings: Oryctolagus cuniculus, rabbit articular chondrocytes, stimulation with 0.3 ng/mL of IL-1β, 24 h, read-out: GAG Release inhibitory activity IC50
Procedure: (§3) Inhibitory effects of compounds of this invention were assessed according to the following in vitro assay:
(§4) Normal articular chondrocytes were obtained from young New Zealand white rabbits. Shoulders, femoral heads and knees were detached and transferred under a laminar flow hood. The articular cartilage was removed from the articular surfaces under sterile conditions. Tissue fragments were successively digested in an incubator (37°C, 5% CO2/95% air) with enzymes dissolved in DMEM plus 50 µg/ml gentamicin and sterile filtered. The three-step digestion was carried out with 0.05% testicular hyaluronidase for 15 min, followed by 0.25% trypsin for 30 min, and 0.2% clostridium collagenase for 90 min. At the end of the incubation period, chondrocyte suspension was two-fold diluted with DMEM plus 10% FCS, passed through a 200 µm and a 50 µm nylon sieves to remove debris and undigested matrix particles. […]
Proteoglycans associated to cell monolayer were quantified with Dimethylmethylene blue (DMB) assay. […] The absorbance was read within 20 min at 590 nm with a HTS7000plus plate reader. […] The optical density was measured at 590 nm using a plate reader HTS7000plus (Perkin Elmer).

PGE2 Synthesis [6] = assay: IL-1β induced PGE2 synthesis in chondrocyte culture (RIA); assay type: cell-based, New Zealand white rabbits; settings: Oryctolagus cuniculus, rabbit articular chondrocytes, stimulation with 0.3 ng/mL of IL-1β, 24 h, read-out: PGE2 Synthesis inhibitory activity IC50
Procedure: as §3, §4
PGE2 released into the culture medium was determined with a RadioImmunoAssay (RIA) performed according to the instructions of the PGE2 antiserum manufacturer (Sigma). […] The supernatant was counted in 7 ml of Ultima-Gold MV® and the amount of radioactivity measured in a Packard Tricarb β-counter. […]

[7] = Metabolic stability in rat liver S9 fraction; assay type: in vitro ADME; settings: rat liver S9, 1µM, average of two experiments
Source text: as §1, §2

Solubility in water = assay type: physicochemical; settings: pH 7.4, aqueous buffer
[8] = Metabolic stability in dog liver S9 fraction; assay type: in vitro ADME; settings: dog liver S9, 1µM, average of two experiments
Source text: as §1, §2

NO Synthesis [9] = assay: IL-1β induced NO synthesis in chondrocyte culture (nitrite, DAN fluorometric method); assay type: cell-based, New Zealand white rabbits; settings: Oryctolagus cuniculus, rabbit articular chondrocytes, stimulation with 0.3 ng/mL of IL-1β, 24 h, read-out: NO Synthesis inhibitory activity IC50
Procedure: as §3
as §4, with “min.” for “min. At the end of the incubation period, chondrocyte suspension was two-fold diluted with DMEM plus 10% FCS, passed through a 200 µm and a 50 µm nylon sieves to remove debris and undigested matrix particles.”
NO production by chondrocytes was measured as nitrite, a stable end product and a reliable indicator of NO synthesis. Nitrites released in the culture supernatant were quantified with the fluorometric method according to Misko (Misko TP, Schilling RJ, Salvemini D, Moore WM, Currie MG. Anal Biochem; 214:11-16, 1993). […] The intensity of fluorescence was recorded in a 96-well plate (optiplate, Packard) with a plate reader (HTS7000 plus, Perkin Elmer) with excitation at 360 nm and emission read at 465 nm. Nitrite concentrations were calculated from a standard curve of sodium nitrite ranging from 10 to 100 ng/ml.

PGE2 Synthesis [10] = settings: Human articular chondrocytes, IL-1β induced; Free Rad.Biol.Med. 33, 1097-1105, 2002; read-out: PGE2 Synthesis inhibitory activity IC50; cited from earlier work
NO Synthesis [11] = settings: Human articular chondrocytes, IL-1β induced; Free Rad.Biol.Med. 33, 1097-1105, 2002; read-out: NO Synthesis inhibitory activity IC50; cited from earlier work
GAG Release = settings: Human articular cartilage, IL-1β induced; JPET, 308, 767-773, 2004; read-out: GAG Release inhibitory activity IC50; cited from earlier work

Which IC50 (PGE2 Synthesis [1]) does the source give for `COc1nccc(-c2c(-c3ccc(F)cc3)ncn2C2CCNCC2)n1` [SB-242235] here?
The IC50 was 1 to 3 µM.

What about the IC50 (NO Synthesis [2]) of the same molecule?
Its IC50 is 1 µM.

Which “In vitro metabolism Parent remaining (%) Test concentration 1µM Human” value [3] does the source give for `OC[C@@H](O)[C@@H](O)[C@H](O)c1cnc([C@@H](O)[C@H](O)[C@H](O)CO)cn1` [Compound 1.1, Bis-(1R, 1'R, 2S, 2'S, 3R, 3'R)-1,2,3,4-butanetetrol-1,1'-(2,5-pyrazinediyl)] here?
The value was 108%.

And the Papp A→B [4]?
Its Papp A→B is 113 ×10⁻⁶ cm/s.

And the Papp B→A [4]?
The Papp B→A was 72.9 ×10⁻⁶ cm/s.

What about the IC50 [5] of the same molecule?
Its IC50 is 46 µM.

And the IC50 (PGE2 Synthesis [6])?
Its IC50 is 4 µM.

And the “In vitro metabolism Parent remaining (%) Test concentration 1µM Rat” value [7]?
Its value is 110%.

What about the solubility (Solubility in water) of the same molecule?
The solubility was ≤ 100 mM.

What about the “In vitro metabolism Parent remaining (%) Test concentration 1µM Dog” value [8] of the same molecule?
Its value is 96%.

And the IC50 (NO Synthesis [9])?
Its IC50 is 8 µM.

Which IC50 (PGE2 Synthesis [10]) does the source give for `O=C(O[C@@H]1Cc2c(O)cc(O)cc2O[C@@H]1c1cc(O)c(O)c(O)c1)c1cc(O)c(O)c(O)c1` [EGCG, epigallocatechin gallate] here?
The IC50 was > 200 µM.

What about the IC50 (NO Synthesis [11]) of the same molecule?
The IC50 was ~200 µM.

What about the IC50 (GAG Release) of the same molecule?
Its IC50 is ~100 µM.
